# Measured values reported in US20240156764A1, “INHIBITION OF URACIL DNA GLYCOSYLASE IN THE OPEN CONFORMATION” (CASE WESTERN RESERVE UNIVERSITY, priority 2022, published 2024).
# pIC50: −log10 of the molar value. “Also recorded” adds a separate entry of the source.
# Experiments:
# human UDG = human UDG (Homo sapiens, UniProt P13051); test: UDG protein thermal shift with Sypro orange dye; type: binding; settings: 100 μM ATA
# Method: The data for thermophoresis was recorded at 20° C. using the blue LED at 20% and IR-Laser at 40%. The isotherm derived from the raw data and fitted according to the law of mass action. […] Then 2 μL of 10× Sypro dye and 2 μL of ddH20 (Applied biosystems cat #4461141) were added. Monitoring of fluorescence took place for 2 hr (Bioraid CFX96, Hex filter, 25-97° C., 1.6° C./2 min). Negative (−) derivative RFU raw data and plots from the machine were obtained and analyzed. […] Melting temperature (Tm) value was taken directly from the midpoint on the −dRFU/dt vs. temperature graph. Each point on the graph represents an average of three data sets. Y error bars represent the standard deviation.
# FIGS. 10(A-D) illustrate UDG thermal shift. A: Uracil DNA hairpin stabilizes UDG protein. […] Melting temperature (Tm) values were taken directly from lowest peak point on the negative dRFU/dt over temperature plots. B: (with uracil DNA): Parallel set of wells on the same plate included uracil-DNA harpin (final […]). Each plate was incubated 60 min at room temperature before the monitoring of fluorescence took place about 2 hr (Biorad CFX96, Hex filter, 25° C.-97C, 1.6° C./2 min). […] Each plate was incubated 60 min at room temperature before the monitoring of fluorescence took place about 2 hr (Biorad CFX96, Hex filter, 25° C.-97° C., increment of 1.6° C./2 min). […]
# [1] = molecular target: T1, UDG in human DLD1 colon cancer cell lysate (Homo sapiens, UniProt P13051); test: DNA cleavage assay with cell-free protein extracts from DLD1 cells; type: biochemical
# T1 construct: IC50 in DLD1 UDG containing cell lysate; other: estimated; effect on 23mer ssDNA generation; DLD1 cell extracts; extracts where UDG was present
# Method: A: human cancer lysates were extracted from DLD1 human colon cancer cell lines. […] 20% polyacrylamide nucleic acid urea gel electrophoresis was used to resolve the DNA bands at room temperature, 200 v for 50 min. DNA products were visualized using a Typhoon Trio+Variable Mode Imager (Amersham Biosciences) with excitation and emission wavelengths set to 532 nm and 585 nm respectively, PMT set to 400, and pixel size resolution set to 100 μm. […] Either uracil DNA (U:A bp) or thymidine DNA (T:A bp) was added to initiate the reaction and incubated for additional 20 min at 37° C. 20% polyacrylamide nucleic acid urea gel electrophoresis was used to resolve the DNA bands. Gel data were analyzed using ImageJ software. DNA bands were corrected using a constant background band intensity subtraction step. Then, percent cleavage was calculated by using fluorescence intensity of the cleaved 23-mer DNA strand divided by the sum of the fluorescence bands (23mer+40mer DNA).
# The reaction was pre-incubated for 20 min at 37° C. before a fluorescently-labeled TAMRA DNA duplex oligo containing a single U:A bp (final 30 nM) was added to each reaction well with a total reaction volume of 50 μL/well. Plate was further incubated for 20 min at 37° C. 5 μL of a denaturing loading dye (20 mg of bromophenol blue, 9.7 ml of formamide plus 300 μL of 10M NaOH) was added to stop each reaction. DNA products from each reaction were resolved on a 20% denaturing polyacrylamide nucleic acid urea gel (5.3 grams of urea was dissolved in 2.3 mL of 5×TBE, 5 mL of 40% bis-acrylamide 29:1 solution). 5×TBE buffer was prepared by dissolving 54 grams of tris base, 28 grams of boric acid, and 4.5 grams of EDTA in a liter of distilled H2O. Gels were processed at 200V for 60 mins at room temperature, in the dark. […] Gel data were analyzed using ImageJ software. […] Then, percent cleavage was calculated by using fluorescence intensity of the cleaved 23-mer DNA strand divided by the sum of the fluorescence bands (23mer+40mer DNA strands)*100 for untreated and treated conditions. […]
# [2] = test system: T:G basepairs (TDG, MBD4) repair in MCF-7 cells; test: Host-cell reactivation assay, T:G reporter, MCF-7; type: cell-based, human; settings: ATA 2.5 μM
# Method: Panel A: 1.25 μM and panel B: 2.5 μM. Reporter expression was calculated for each dose of ATA as described in prior publications and normalized to DMSO treatment.
# Removal of uracil in cells was measured using a reporter plasmid containing a dU:dG base pair (referred to as BFP_U), as described previously. In brief, dU is substituted into the transcribed strand at position 191 of the blue fluorescent protein (BFP) gene. When RNA polymerase II incorporates dA opposite dU, transcripts encoding wild type BFP are produced. Upon repair, dU is replaced by dC, leading to production of transcripts encoding a non-fluorescent protein. […] A corresponding cocktail of damage-free plasmids containing pmax BFP (100 ng per transfection), pmax GFP (100 ng per transfection), and carrier plasmid (800 ng per transfection) constituted the “undamaged” cocktail. After normalizing to expression of the pmax,GFP transfection control, expression of BFP_U in the damaged cocktail was normalized to similarly normalized expression of pmax_BFP in the undamaged cocktail. The reciprocal of BFP_U reporter expression was calculated for each experimental condition. […] This creates a premature stop codon, completely abolishing fluorescence. Removal of thymidine followed by insertion of dC opposite dG restores reporter fluorescence.
# [3] = test system: A:8oxoG (MPG, MUTYH) repair in MCF-7 cells; test: Host-cell reactivation assay, A:8oxoG reporter, MCF-7; type: cell-based, human; settings: ATA 2.5 μM
# T1 sequence (P13051 45-313 limits assumed): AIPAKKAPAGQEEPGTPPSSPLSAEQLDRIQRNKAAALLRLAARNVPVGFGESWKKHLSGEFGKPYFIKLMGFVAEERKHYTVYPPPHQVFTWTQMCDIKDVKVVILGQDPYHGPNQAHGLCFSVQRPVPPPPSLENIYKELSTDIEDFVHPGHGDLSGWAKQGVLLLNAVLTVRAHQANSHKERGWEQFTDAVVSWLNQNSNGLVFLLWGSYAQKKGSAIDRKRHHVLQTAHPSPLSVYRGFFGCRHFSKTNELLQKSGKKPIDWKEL
# human UDG, sequence (P13051 94-313 limits assumed): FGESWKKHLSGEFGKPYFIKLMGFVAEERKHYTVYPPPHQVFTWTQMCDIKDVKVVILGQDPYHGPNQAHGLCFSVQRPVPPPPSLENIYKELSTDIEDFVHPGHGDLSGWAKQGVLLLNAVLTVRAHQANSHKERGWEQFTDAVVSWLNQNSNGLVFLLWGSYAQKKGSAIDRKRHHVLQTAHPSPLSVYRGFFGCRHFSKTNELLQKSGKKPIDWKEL
compound,measurement,setting,value
"O=C(O)C1=CC(=C(c2ccc(O)c(C(=O)O)c2)c2ccc(O)c(C(=O)O)c2)C=CC1=O [ATA, aurintricarboxylic acid]",average maximum Tm change for UDG,human UDG; absence of uracil containing DNA,~3.0 °C
same,change of Tm of UDG protein,human UDG; with 1.0 mM uracil DNA hairpin,did not further change the Tm
same,effect on 23mer ssDNA generation,"[1]; 12.5 μM ATA, DLD1 cell extracts",minimal effect
same,inhibition of 23mer ssDNA appearance,"[1]; 50 μM ATA, extracts where UDG was present",near-complete inhibition; also recorded: completely inhibited
same,pIC50,[1]; read-out: IC50 in DLD1 UDG containing cell lysate,~4.49
same,inhibition of repair of T:G basepair,[2],not inhibiting
same,inhibition of repair of A:8oxoG basepair,[3],not inhibiting
